Two compounds from publication PMC11274883, “Anticancer Effect of Pt^[sequence], Pt^II5MESS, Pt^II56MESS and Their Platinum(IV)-Dihydroxy Derivatives against Triple-Negative Breast Cancer and Cisplatin-Resistant Colorectal Cancer” (Cancers, 2024) can be followed below.

Holding throughout (type): cell-based
Test [1] concerns HT29 cells. Kind of test: TMRE mitochondrial membrane potential assay. The conditions noted are these: complexes at IC50, FCCP 20 µM. As to the method:
(§1) Cells were then treated with an IC50 drug concentration for each complex. At 24, 48 or 72 h, DMEM was removed, and cells were washed with PBS. Then, cells were incubated with 1 µM tetramethylrhodamine, ethyl ester (TMRE) stain for 30 min. TMRE was then removed, and cells were washed twice with PBS (0.2% BSA), after which phenol red-free media was added. […] The cells were then stained with TMRE, as described above, and the resulting solution was scanned for fluorescence. Three independent experiments in triplicates were implemented.

Test [2] deals with MDA−MB−231 cells. The experiment in a line: TMRE mitochondrial membrane potential assay. The conditions noted are these: complexes at IC50, FCCP 20 µM. The procedure: as §1
Test [3] deals with HT29 cells. The experiment in a line: DCFDA cellular ROS detection assay. The conditions noted are these: complexes at IC50, TBHP 20 µM. As to the method: (§2) DCFDA/H2DCFDA-cellular ROS Assay Kit (Abcam, Cambridge, MA, USA) was used to investigate the production of ROS in treated cells, as previously described. MDA−MB−231 or HT29 cells were seeded at a total concentration of 2500 cells/well in 96-well plates and incubated overnight. DMEM was then removed, and cells washed with 1× kit buffer, and stained with 25 µM 2′,7′-dichlorofluorescein diacetate (DCFH-DA) for 45 min. […] After that, the plates were scanned using the Glo-Max®-Multimode microplate reader (Promega Corporation, Alexandra, VIC, Australia) at an excitation/emission of 485/535 nm to detect fluorescence (relative fluorescence units, or RFU) at various time points. A positive control was generated using 20 µM tert-butyl hydroperoxide (TBHP), and the same procedure was applied with DCFDA. Three independent experiments in triplicates were implemented.

Test [4] has as its system MDA−MB−231 cells. Kind of test: DCFDA cellular ROS detection assay. The conditions noted are these: complexes at IC50, TBHP 20 µM. The procedure: as §2

As to `N#CC(C#N)=NNc1ccc(OC(F)(F)F)cc1` [FCCP, carbonyl cyanide 4-(trifluoromethoxy) phenylhydrazone, reference compound], the “MtMp (mitochondrial membrane potential)” value in test [1] (HT29, 24 h) turned out to be 184.32 RFU; in test [1] (HT29, 48 h), 143.31 RFU; in test [1] (HT29, 72 h), 83.58 RFU; in test [2] (MDA−MB−231, 24 h) it was 215.89 RFU; in test [2] (MDA−MB−231, 48 h), 123.38 RFU; in test [2] (MDA−MB−231, 72 h), 99.10 RFU.
Take `CC(C)(C)OO` [TBHP, tert-butyl hydroperoxide, reference compound]: the ROS production in test [3] (HT29, 24 h) amounted to 544.67 RFU; in test [3] (HT29, 48 h), 362.55 RFU; in test [3] (HT29, 72 h), 371.44 RFU; in test [4] (MDA−MB−231, 24 h), 509.88 RFU; in test [4] (MDA−MB−231, 48 h), 400.11 RFU; in test [4] (MDA−MB−231, 72 h) it was 388.41 RFU.
